The values below come from patent US8946426B2, “Substituted bicyclic heterocyclic compounds as gamma secretase modulators” (Janssen Pharmaceuticals, Inc., priority 2009, dated 2015).

The test system of one data set is Aβtotal. In words: In vivo efficacy: Aβtotal lowering in brain after single oral dose (Table 8). The note with it: mouse brain soluble fraction, ELISA, compared to untreated animals. An excerpt: To determine whether acute administration of an Aβ42 lowering agent would reduce Aβ42 levels in vivo, non-transgenic rodents, e.g. mice or rats were used. Alternatively, two to three month old Tg2576 mice expressing APP695 containing the “Swedish” variant can be used or a transgenic mouse model developed by Dr. Fred Van Leuven (K.U.Leuven, Belgium) and co-workers, with neuron-specific expression of a clinical mutant of the human amyloid precursor protein [V7171] (Moechars et al., 1999 J. Biol. Chem. 274, 6483). Young transgenic mice have high levels of Aβ in the brain but no detectable Aβ deposition. At approximately 6-8 months of age, the transgenic mice start to display spontaneous, progressive accumulation of β-amyloid (Aβ) in the brain, eventually resulting in amyloid plaques within the subiculum, hippocampus and cortex. Animals treated with the Aβ42 lowering agent were examined and compared to those untreated or treated with vehicle and brain levels of soluble Aβ42 and total Aβ would be quantitated by standard techniques, for example, using ELISA. Treatment periods varied from hours to days and were adjusted based on the results of the Aβ42 lowering once a time course of onset of effect could be established.
A typical protocol for measuring Aβ42 lowering in vivo is shown but it is only one of many variations that could be used to optimize the levels of detectable Aβ. For example, Aβ42 lowering compounds were formulated in 20% of Captisol® (a sulfobutyl ether of β-cyclodextrin) in water or 20% hydroxypropyl β cyclodextrin. The Aβ42 lowering agents were administered as a single oral dose or by any acceptable route of administration to overnight fasted animals. After four hours, the animals were sacrificed and Aβ42 levels were analysed.
Blood was collected by decapitation and exsanguinations in EDTA-treated collection tubes. Blood was centrifuged at 1900 g for 10 min at 4° C. and the plasma recovered and flash frozen for later analysis. The brain was removed from the cranium and hindbrain. The cerebellum was removed and the left and right hemisphere were separated. The left hemisphere was stored at −18° C. for quantitative analysis of test compound levels. The right hemisphere was rinsed with phosphate-buffered saline (PBS) buffer and immediately frozen on dry ice and stored at −80° C. until homogenization for biochemical assays.
Mouse brains were resuspended in 10 volumes of 0.4% DEA (diethylamine)/50 mM NaCl pH 10 (for non-transgenic animals) or 0.1% 3-[(3-cholamidopropyl)-dimethyl-ammonio]-1-propanesulfonate (CHAPS) in tris buffered saline (TBS) (for transgenic animals) containing protease inhibitors (Roche-11873580001 or 04693159000 per gram of tissue, e.g. for 0.158 g brain, add 1.58 ml of 0.4% DEA. All samples were sonicated for 30 sec on ice at 20% power output (pulse mode). Homogenates were centrifuged at 221.300×g for 50 min. The resulting high speed supernatants were then transferred to fresh tubes and were optionally further purified before the next step. A portion of the supernatant was neutralized with 10% 0.5 M Tris-HCl and this was used to quantify Aβtotal.
The obtained supernatants were purified with Water Oasis HLB reverse phase columns (Waters Corp., Milford, Mass.) to remove non-specific immunoreactive material from the brain lysates prior subsequent Aβ detection. Using a vacuum manifold, all solutions were passed through the columns at a rate of approximately 1 ml per minute, so the vacuum pressure was adjusted accordingly throughout the procedure. Columns were preconditioned with 1 ml of 100% MeOH, before equilibration with 1 ml of H2O. Non-neutralized brain lysates were loaded onto the columns. The loaded samples were then washed twice with the first wash performed with 1 ml of 5% MeOH, and the second wash with 1 ml of 30% MeOH. Finally, the Aβ was eluted from the columns and into 100×30 mm glass tubes, with a solution of 90% MeOH with 2% NH4OH. […]
For orientation: ELISA stands for enzyme-linked immunosorbent assay.

For data set [1], the system named is Notch-processing activity of the γ-secretase-complex. In words: Notch cell-free assay (NICD production from recombinant Notch substrate N99). The format is biochemical. The note with it: 1 μM test compound; 0.3-0.5 μM mouse Notch substrate; enriched gamma secretase; 37° C., 6 to 22 h; western blot; control GSI concentration not given. As to the method:
The Notch transmembrane domain is cleaved by gamma secretase to release Notch Intracellular C-terminal Domain (NICD).
To monitor the effect of compounds on NICD production, a recombinant Notch substrate (N99) was prepared. The Notch substrate, comprised of mouse Notch fragment (V1711-E1809), an N-terminal methionine and a C-terminal FLAG sequence ([…]), was expressed in E. coli and purified on a column containing an anti-FLAG M2 affinity matrix.
A typical Notch cell-free assay consisted of 0.3-0.5 μM Notch substrate, an enriched preparation of gamma secretase and 1 μM of a test compound (compounds 16, 18 and 106 of the present invention). Controls included a gamma secretase inhibitor (GSI), such as (2S)—N-[2-(3,5-difluorophenyl)acetyl]-L-alanyl-2-phenyl-glycine 1,1-dimethylethyl ester (DAPT) or (2S)-2-hydroxy-3-methyl-N-[(1S)-1-methyl-2-oxo-2-[[(1S)-2,3,4,5-tetrahydro-3-methyl-2-oxo-1H-3-benzazepin-1-yl]amino]ethyl]-butanamide (Semagacestat), and DMSO, the final concentration of DMSO being 1%. Recombinant Notch substrate was pre-treated with 17 μM DTT (1,4-dithiothreitol) and 0.02% SDS (Sodium Dodecyl Sulfate) and heated at 65° C. for 10 min. The mixture of substrate, gamma secretase and compound/DMSO was incubated at 37° C. for 6 to 22 hours (h). Six-hour incubation was sufficient to produce the maximal amount of NICD and the cleaved product remained stable for an additional 16 H. Reaction products were processed for SDS PAGE (Sodium Dodecyl Sulfate-Poly Acrylamide Gel Electrophoresis) and western blotting. Blots were probed with an anti-Flag M2 antibody, followed by LI-COR infrared secondary antibody, and analyzed with the Odyssey Infrared Imaging System (LI-COR® Biosciences).
Background: In western blotting, separated proteins are transferred to a membrane and probed.

What is called melting point is the temperature, or range, at which the solid turns liquid. Compound `Cc1ncoc1-c1ccc(Nc2cccc3c2nc(-c2ccc(F)cc2)n3C)nc1` [Compound 10] returned a melting point of 195.4 °C. The “Aβtotal (% Ctrl)_Mean” value in the data set on Aβtotal turned out to be 109 % Ctrl.

As to `COc1cc(Nc2cccc3c2nc(CCC(F)(F)F)n3C)ccc1-c1ocnc1C` [Compound 11], in the data set with Aβtotal, the “Aβtotal (% Ctrl)_Mean” value was 99 % Ctrl.

For `COc1cc(Nc2cccc3c2nc(-c2ccc(F)cc2)n3C)ccc1-c1ocnc1C` [Compound 12], the “Aβtotal (% Ctrl)_Mean” value in the data set with Aβtotal turned out to be 101 % Ctrl.

The compound `COc1cc(Nc2cccc3c2nc(-c2ccc(F)cc2)n3C)ccc1-c1cnc(C)o1` [Compound 16] came in with a melting point of 189 °C. The “effect on the Notch-processing activity of the γ-secretase-complex (production of NICD)” value in data set [1] is given as “did not show an effect”. Moreover, the “Aβtotal (% Ctrl)_Mean” value with Aβtotal stood at 95 % Ctrl.

For `Cc1ncc(-c2ccc(Nc3nccc4c3nc(-c3ccc(F)cc3)n4C)cc2F)o1` [Compound 17], the “Aβtotal (% Ctrl)_Mean” value in the data set with Aβtotal is on record as 109 % Ctrl.

Regarding `Cc1ncc(-c2ccc(Nc3cccc4c3nc(-c3ccc(F)cc3)n4C(C)C)cn2)o1` [Compound 18], the melting point was determined as 133.4 °C. The “effect on the Notch-processing activity of the γ-secretase-complex (production of NICD)” value in data set [1] is recorded as “did not show an effect”. The “Aβtotal (% Ctrl)_Mean” value in the data set with Aβtotal came to 94 % Ctrl.

With `COc1cccc(-c2nc3c(Nc4ccc(-c5cnc(C)o5)nc4)cc(F)cc3n2C)c1` [Compound 105], the “Aβtotal (% Ctrl)_Mean” value with Aβtotal came out at 96 % Ctrl.

As to `COc1cc(Nc2nc(C(F)(F)F)cn3cc(C)nc23)ccc1-c1cnc(C)o1` [Compound 170], the “Aβtotal (% Ctrl)_Mean” value in the data set with Aβtotal is given as 99 % Ctrl.

Regarding `COc1cc(Nc2cncc3c2nc(-c2ccc(F)cc2)n3C)ccc1-c1cnc(C)o1` [Compound 186], the “Aβtotal (% Ctrl)_Mean” value in the data set on Aβtotal is given as 82 % Ctrl.

With `COc1cc(Nc2cc(C(F)(F)F)nn3cc(C)nc23)ccc1-c1cnc(C)o1` [Compound 195], in the data set with Aβtotal, the “Aβtotal (% Ctrl)_Mean” value was 99 % Ctrl.
